{
  "source": "ChEMBL document CHEMBL6103657",
  "about": "“Discovery of a Potent SARM1 Base-Exchange Inhibitor with In Vivo Efficacy” (J Med Chem, 2025)",
  "key": {"[1]": {"assay": "physchem", "details": "octanol/aqueous buffer, pH 7.4"}, "[2]": {"assay": "physchem", "details": "buffer, pH 6.5"}},
  "data": [
    {"molecule": "CN(Cc1ccncc1)C(=O)NC1COCC1(F)F", "note": "(stereo unspecified)", "values": [
      {"measurement": "logD", "setting": "[1]", "value": 0.3},
      {"measurement": "solubility", "setting": "[2]", "value": "> 271", "unit": "µg/mL"}
    ]},
    {"molecule": "CC[C@@H](c1ccncc1)N(C)C(=O)N[C@@H]1COCC1(F)F", "values": [
      {"measurement": "logD", "setting": "[1]", "value": 0.73},
      {"measurement": "solubility", "setting": "[2]", "value": "> 299", "unit": "µg/mL"}
    ]},
    {"molecule": "C[C@@H](c1ccncc1)N(C)/C(=N\\C#N)NC1COCC1(F)F", "note": "(stereo partly specified)", "values": [
      {"measurement": "logD", "setting": "[1]", "value": 0.9},
      {"measurement": "solubility", "setting": "[2]", "value": "> 309", "unit": "µg/mL"}
    ]}
  ]
}
